Assay results: patent US10766927B2, “Peptides that stimulate subcutaneous adipogenesis” (THE REGENTS OF THE UNIVERSITY OF CALIFORNIA, priority 2012, dated 2020)

What was measured:
[1] = test system: Pre-adipocyte stem cells including bone marrow mesenchymal stem cells and fibroblasts; experiment: Assay 1 to measure adipogenesis (IBMX/dexamethasone initiation, Oil Red O or BODIPY staining); format: cell-based, rat; details: for adipogenic effect compared to KSEVSK 6-mer: assay 1 (FIG. 11); for Fold adipogenic induction vs. negative control / Specific activity (activity/1000 daltons): Assay 1
Method: Reagents: (1) 3-isobutyl-1-methylxanthine (IBMX) solution: 0.5M in DMSO; (2) Insulin solution: 10 mg/mL recombinant human insulin; (3) Dexamethasone solution in 10 mM in ethanol; (4) Oil Red 0 (0.36% in 60% isopropanol) or BODIPY dye (BODIPY 493/503 (4,4-difluoro-1,3,5,7-tetramethyl-4-bora-3a,4a-diaza-s-indacene-8-propionic acid, succinimidyl ester) from Invitrogen at 4-10 μM).
Adipogenesis Initiation Media: mesenchymal stem cell expansion media/0.5 mM IBMX/1 μM dexamethasone. Mesenchymal stem cell expansion media is commercially available from Millipore. The IBMX Solution was diluted 1:1000 and the Dexamethasone Solution was diluted 1:10,000 in expansion media containing antibiotics and antimycotics. The prepared media was stored at 4° C.
Adipogenesis Progression Media for positive control: mesenchymal stem cell expansion media/10 μg/mL insulin. The Insulin Solution was diluted 1:1000 in the expansion media and stored at 4° C.
Experimental Adipogenesis Progression Media: mesenchymal stem cell expansion media/1-100 μg/mL RHAMM antagonist peptides.
Adipogenesis Maintenance Media: mesenchymal stem cell expansion media containing antibiotics and antimycotics.
Negative Control Media: DMEM/10% normal calf serum.
(§1) Pre-adipocyte stem cells including bone marrow mesenchymal stem cells and fibroblasts including reticular and papillary dermal fibroblasts were propagated using standard tissue culture methods. Cells were trypsinized to remove the cells from the substratum. The trypsin was neutralized and cells were counted using a hemocytometer. Cells were resuspended at 30,000 cells/mL in expansion media. […] of cell suspension was plated per well of 24-well plate, with several wells left empty for blank well staining.
Cells were incubated for 1-2 days until they reached confluency. Approximately 1.8 mL of media was removed from each well and replaced with 2 mL Adipogenesis Initiation Media. For negative control wells, expansion media only was used at this step and for subsequent media changes. For all media changes, media was replaced as gently as possible to avoid disturbing the monolayer.
Cells were incubated for 48 hours at 37° C., 5% CO2. 2 mL media was removed from each well, and replaced with 2 mL either positive control or experimental Adipogenesis Progression Media per well. Cells were again incubated for 48 hours at 37° C., 5% CO2. 2 mL of media was removed from each well and replaced with 2 mL Adipogenesis Maintenance Media per well. In addition, media was added to the empty wells reserved for blank well staining Cells were incubated for at least 48 hours at 37° C., 5% CO2. Media was replaced every 48-72 hours. Accumulation of intracellular lipid droplets continued for at least 5 days.
For quantification of Oil Red 0 staining, media was removed and cells were washed twice with PBS, using care to gently add the PBS. 0.5 mL Oil Red 0 solution was added per well of 24-well plate, including to the wells lacking cells, but containing media. Cells were incubated for 15 minutes at room temperature. The staining solution was then removed and wells were washed three times with 1 mL of phosphate buffered saline (PBS). In some experiments, following removal of the last wash, stained plates were scanned or photographed.
Adipogenesis was quantified using a spectrophotometer or fluorometer. 0.25 mL Dye Extraction Solution (isopropyl alcohol) was added per well, and the plate was set on an orbital shaker or platform rocker for 15-30 minutes. Extracted dye was transferred into a cuvette and absorbance was read in a spectrophotometer at visible range for oil red 0 or transferred to a 96-well plate and quantified in a plate reader.
For quantification of BODIPY dye uptake, media was removed and cells were washed twice with PBS, using care to gently add the PBS. Cells were then fixed in 3% paraformaldehyde, washed in PBS then incubated for 1 hour in the dark with the BODIPY solution, prepared in PBS. […]

[2] = test system: Pre-adipocyte stem cells, bone marrow mesenchymal stem cells and fibroblasts; experiment: Assay 2 to measure adipogenesis (dexamethasone/insulin/indomethacin induction, Oil Red O or BODIPY staining); format: cell-based; details: for adipogenic effect compared to KSEVSK 6-mer: assay 2 (FIG. 12); for Fold adipogenic induction vs. negative control / Specific activity (activity/1000 daltons): Assay 2
Method: The dexamethasone, insulin, and Oil Red 0 solutions were the same as described above for assay 1. Indomethacin Solution contained 10 mM indomethacin in methanol. The BODIPY 493/503 dye was used at a concentration of 4 μM.
Adipogenesis Maintenance Media was prepared as described above.
Adipogenesis Induction Media: To prepare 501 mL of Adipogenesis Induction Media, 50 μL of the 10 mM stock solution of dexamethasone, 500 μL of the 10 mg/ml stock solution of insulin, 5 ml of a 10 mM stock solution of indomethacin, and 5 mL of a 100× stock solution of penicillin and streptomycin were added to 490 mL of mesenchymal stem cell expansion media.
(§2) Pre-adipocyte stem cells, bone marrow mesenchymal stem cells and fibroblasts such as dermal reticular and papillary fibroblasts were propagated using standard tissue culture methods. Cells were trypsinized to remove cells from the substratum, the trypsin was neutralized, and cells were counted using a hemocytometer. Cells were resuspended at 60,000 cells/ml in low glucose DMEM containing 10% calf serum. 1 mL of cell suspension per well was plated in a 24-well plate, with several wells left empty for blank well staining.
Cells were incubated overnight and had reached confluency at this point. Approximately 1.8 ml of media was removed from each well and replaced with 2 ml Adipogenesis Induction Media. For negative control wells, expansion medium only was used at this step and for subsequent media changes. For all media changes, media was replaced as gently as possible to avoid disturbing the monolayer.
Cells were incubated for 3 days at 37° C., 5% CO2, media was replaced with fresh Adipogenesis Induction Media, and cells were incubated for an additional three days, at which point adipogenesis could be observed in about 5-10% of cells. Media was removed and replaced with 2 ml of maintenance medium containing either RHAMM antagonist peptides (experimental group) or insulin (concentration as in the induction medium used as positive control). Cells were incubated for 3 days at 37° C., 5% CO2.
Media was removed and BODIPY or Oil Red O staining was performed as described above for assay 1.

[3] = test system: bone marrow mesenchymal stem cells; experiment: Adipogenesis in culture, assay 1 or 2 not specified; format: cell-based; details: for adipogenic activity (in words): truncation fragments, FIGS. 7-9, 13; for activity compared to KSEVSK hexamer: FIG. 13, doses 1, 5, 25 μg, absorbance at 520 nm
From the text: The following assays were used to assess adipogenic activity of the peptides in the experiments described below in Example 2.
as §1, §2

[4] = test system: Pre-adipocytes (rat mesenchymal stem cells); experiment: Adipogenic potential in 2D rat pre-adipocyte culture; format: cell-based; details: ranked on a scale of 0-5 with 5 the highest possible score; two-dimensional tissue culture
Method: (§3) Examples of the adipogenic effects of RHAMM antagonists (peptide B (SEQ ID NO: 2), peptide P15-1 (SEQ ID NO. 1), and the antibody to peptide B) are summarized in Table 1. Peptide P15-1, peptide B, and a RHAMM antibody were assayed for their effects on pre-adipocyte stem cells in culture and when injected into the dermis of aged rats. Reagents were ranked on a scale of 0-5 with 5 representing the highest possible score and a completely filled in Harvey ball. “2D” refers to two-dimensional tissue culture.

Rat skin = experiment: Rat dermal skin model of adipogenesis (injection into the dermis); format: in vivo; details: for adipogenic potential, In vivo Rat skin: ranked on a scale of 0-5 with 5 the highest possible score, injected into the dermis of aged rats
Method: as §3
In FIGS. 5A and 5B, data are shown as a ratio of the area (“surface area”) of fat pads expressed as a ratio of experimental/control values.
The 6-mer (KSEVSK; SEQ ID NO: 3) was tested for adipogenic effect in rat skin in vivo. The results of this testing are shown in the photographs in FIG. 10.

human Pre-adipocytes = experiment: Adipogenic potential in 2D human pre-adipocyte culture; format: cell-based; details: ranked on a scale of 0-5 with 5 the highest possible score; two-dimensional tissue culture
Method: as §3

nude guinea pigs = experiment: Nude guinea pig model, injection in upper back and ear fat pad, H and E staining; format: in vivo; details: upper back and ear fat pad after injection; control collagen gel vehicle only
Method: Peptide B (SEQ ID NO: 2) was also tested for its effect in nude guinea pigs since their skin structure resembles human facial skin. In particular, the skin of this animal model is more similar to human skin than is rat skin, in that it is hairless and the keratinocyte layer is thicker than in the rat model. […] Thus, peptide B was effective in promoting adipogenesis in this nude guinea pig model.

mesenchymal stem cell = experiment: Adipogenesis using a commercially available mesenchymal stem cell kit; format: cell-based

In the case of ASEVSK, the “adipogenic effect compared to KSEVSK 6-mer” value [1] is reported as “reduced adipogenic effects” and the “adipogenic effect compared to KSEVSK 6-mer” value [2] is reported as “reduced adipogenic effects”.

KLKDENS was tested, and the “adipogenic activity (in words)” value [3] was “Only the SQLKSEVSK (SEQ ID NO: 44) fragment was found to be adipogenic”.

KLKDENSQLKSEVSK [peptide B] was tested, and the “adipogenic potential, 2D rat Pre-adipocytes (rat mesenchymal stem cells)” value [4] was 5, the “fat accumulation in rat dermal skin model” value (Rat skin; 25-50 μg/injection site) was “induced significant fat accumulation” and the “fat pad surface area, experimental/control: animal group with best effect” value (Rat skin; FIGS. 5A and 5B) was “most effective in old females”. For the same molecule, the “adipogenic potential, In vivo Rat skin” value (Rat skin) was 5, the “adipogenic potential, 2D human Pre-adipocytes” value (human Pre-adipocytes) was 5 and the “Fold adipogenic induction vs. negative control” value [2] was 3.1. The “Specific activity (activity/1000 daltons)” value (“Specific activity” for short) [2] was 1.7 activity/1000 daltons, the “amount at which maximum adipogenic effect was obtained” value ([3]; bone marrow mesenchymal stem cells, depending upon the screening assay used (FIGS. 3B, 3C, 4)) was 1 to 5 µg and the subcutaneous fat deposition (nude guinea pigs) was “increase in subcutaneous fat deposition”.

KSEVS was tested, and the “activity compared to KSEVSK hexamer” value [3] was “much less active” and the “adipogenic activity (in words)” value [3] was “low level of adipogenic activity”.

KSEVSA was tested, and the “adipogenic effect compared to KSEVSK 6-mer” value [1] was “reduced adipogenic effects” and the “adipogenic effect compared to KSEVSK 6-mer” value [2] was “reduced adipogenic effects”.

KSEVSK [6mer] was tested, and the “adipogenic effect in rat skin in vivo (fat pads)” value (Rat skin; FIG. 10) was “able to induce large fat pads, possibly larger than peptide B”, the “Fold adipogenic induction vs. negative control” value [1] was 2.8 and the “Specific activity” value [1] was 3.7 activity/1000 daltons. For the same molecule, the “Fold adipogenic induction vs. negative control” value [2] was 4.2, the “Specific activity” value [2] was 5.6 activity/1000 daltons and the “adipogenic activity (in words)” value [3] was “also found to be adipogenic”.

LKSEVSK [7mer] was tested, and the “Fold adipogenic induction vs. negative control” value [1] was 2, the “Specific activity” value [1] was 2.3 activity/1000 daltons and the “Fold adipogenic induction vs. negative control” value [2] was 3.0. For the same molecule, the “Specific activity” value [2] was 3.4 activity/1000 daltons and the “adipogenic activity (in words)” value [3] was “also found to be adipogenic”.

For SEVSK, the “activity compared to KSEVSK hexamer” value [3] was “much less active” and the “adipogenic activity (in words)” value [3] was “low level of adipogenic activity”.

For SQLKSEVSK [9mer], the “Fold adipogenic induction vs. negative control” value [1] was 2.4, the “Specific activity” value [1] was 2.1 activity/1000 daltons and the “Fold adipogenic induction vs. negative control” value [2] was 3.0. For the same molecule, the “Specific activity” value [2] was 2.6 activity/1000 daltons and the “adipogenic activity (in words)” value [3] was “found to be adipogenic”.

For STMMSRSHK, the “adipogenic activity (in words)” value [3] was “has adipogenic activity”.

In the case of STMMSRSHKTRSHHV [peptide P15-1], the “adipogenic potential, 2D rat Pre-adipocytes (rat mesenchymal stem cells)” value [4] is reported as 2, the “adipogenic potential, In vivo Rat skin” value (Rat skin) is reported as 2 and the “adipogenic potential, 2D human Pre-adipocytes” value (human Pre-adipocytes) is reported as 2.

B1: RHAMM carboxy-terminal sequence: RHAMM carboxy-terminal sequence aa681-794 produced as a recombinant protein (protein)
chain: LDAFEAEKQALLNEHGATQEQLNKIRDSYAQLLGHQNLKQKIKHVVKLKDENSQLKSEVSKLRSQLVKRKQNELRLQGELDKALGIRHFDPSKAFCHASKENFTPLKEGNPNCC
With B1 the promotion of adipogenesis (mesenchymal stem cell) was “promoted adipogenesis”.
